Bounds are passed on as bounds.

The target of this assay is T1, human Itk kinase (Homo sapiens, UniProt Q08881).
T1 sequence (Q08881 1-620): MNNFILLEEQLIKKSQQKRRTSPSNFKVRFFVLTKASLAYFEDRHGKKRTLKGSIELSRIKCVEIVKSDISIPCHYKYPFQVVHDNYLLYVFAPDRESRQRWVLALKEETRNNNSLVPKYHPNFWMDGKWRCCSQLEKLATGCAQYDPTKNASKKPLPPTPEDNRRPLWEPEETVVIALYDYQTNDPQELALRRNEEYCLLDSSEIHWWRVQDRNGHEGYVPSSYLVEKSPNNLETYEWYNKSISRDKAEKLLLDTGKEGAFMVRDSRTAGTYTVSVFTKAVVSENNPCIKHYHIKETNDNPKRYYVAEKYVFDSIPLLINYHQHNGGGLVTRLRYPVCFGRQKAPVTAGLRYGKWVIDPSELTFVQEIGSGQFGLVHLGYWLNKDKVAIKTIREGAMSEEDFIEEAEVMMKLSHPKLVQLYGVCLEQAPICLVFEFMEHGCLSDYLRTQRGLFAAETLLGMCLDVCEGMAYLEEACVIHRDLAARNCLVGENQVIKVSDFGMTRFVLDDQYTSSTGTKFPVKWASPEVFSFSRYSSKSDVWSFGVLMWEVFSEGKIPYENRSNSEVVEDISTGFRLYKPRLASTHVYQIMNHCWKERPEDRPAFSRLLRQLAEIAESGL
Nature of the assay: Itk inhibition assay: radioactivity-based assay. The class given is biochemical. The settings on record: Ki(app). Put shortly: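 50 nM Itk with 3 μM SAM68 Δ332-443 peptide and 7.5 μM [γ-33P]ATP in MOPS pH 7.0, MgCl2, 25° C; compound (top 50 μM final, 2-fold dilutions, 2% DMSO) preincubated 10 min, reaction 10 min. Phosphocellulose filter capture and scintillation counting; Ki(app) by non-linear regression of initial rates.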
In the case of `Cc1cc(Nc2cc(N3CCC3)nc(Sc3ccc(N(C)C(=O)c4ccccc4F)cc3)n2)n[nH]1` [Compound 10], the Ki was in the range of 1000 to 2000 nM. As to `Cc1cc(Nc2cc(N3CCC3)nc(Sc3ccc(NC(=O)C4CC4)cc3)n2)n[nH]1` [Compound 17], the Ki fell in the range of 100 to 1000 nM. For the compound `Cc1cc(Nc2cc(N3CCC3)nc(Sc3ccc(NC(=O)c4ccc(Cl)cc4Cl)cc3)n2)n[nH]1` [Compound 162], the Ki fell in the range of 100 to 1000 nM.

Consider `Cc1cc(Nc2cc(N3CCC3)nc(Sc3ccc(NC(=O)Cc4ccccc4)cc3)n2)n[nH]1` [Compound 35], for which the Ki fell in the range of 100 to 1000 nM. As for `Cc1cc(Nc2cc(N3CCC3)nc(Sc3ccc(NC(=O)Cc4cccc(Cl)c4)cc3)n2)[nH]n1` [Compound 58], the figure is 100 to 1000 nM; as for `Cc1cnc(Nc2cc(N3CC(N)C3)nc(Sc3ccc(NC(=O)C4CC4)cc3)n2)s1` [Compound 2], 100 to 1000 nM; as for `CCC(=O)Nc1ccc(Sc2nc(Nc3cc(C4CC4)n[nH]3)cc(N3CC(C)(O)C3)n2)cc1` [Compound 76], at most 100 nM. As for `Cc1cc(Nc2cc(N3CCC3)nc(Sc3ccc(NC(=O)c4ocnc4C)cc3)n2)n[nH]1` [Compound 167], the figure is 1000 to 2000 nM; as for `Cc1cnc(Nc2cc(N3CC(N(C)C)C3)nc(Sc3ccc(NC(=O)C4CC4)cc3)n2)s1` [Compound 1], 100 to 1000 nM. As for `CCC(=O)Nc1ccc(Sc2nc(C#CC(C)(C)N3CCC3)cc(Nc3cc(C)n[nH]3)n2)cc1` [Compound 77], the figure is 100 to 1000 nM.

As to `CC1=NN=C(Nc2cc(N3CCC3)nc(Sc3ccc(NC(=O)c4ccccc4Cl)cc3)n2)C1` [Compound 5], the Ki lay within 100 to 1000 nM.

Consider `CC1=NN=C(Nc2cc(N3CCC3)nc(Sc3ccc(NC(=O)c4cccc(C(F)(F)F)c4F)cc3)n2)C1` [Compound 55], for which the Ki lay within 100 to 1000 nM. Take `Cc1cc(Nc2cc(N3CCC3)nc(Sc3ccc(NC(=O)c4ccc(Cl)cc4)cc3)n2)n[nH]1` [Compound 54]: the Ki was in the range of 100 to 1000 nM.

As for `COC1CN(c2cc(Nc3cc(C)[nH]n3)nc(Sc3ccc(NC(=O)c4ccccc4Cl)cc3)n2)C1` [Compound 12], the Ki was at most 100 nM. The result for `CC1=NN=C(Nc2cc(N3CCC3)nc(Sc3ccc(NC(=O)c4cccc(Cl)c4F)cc3)n2)C1` [Compound 61] reads at most 100 nM; that for `CCC(=O)Nc1ccc(Sc2nc(Nc3cc(C)n[nH]3)cc(N3CC(C)(C#N)C3)n2)cc1` [Compound 79], 100 to 1000 nM. The result for `Cc1cc(Nc2cc(N3CC(C#N)C3)nc(Sc3ccc(NC(=O)c4ccccc4Cl)cc3)n2)n[nH]1` [Compound 16] reads at most 100 nM. For `Cc1cc(Nc2cc(N3CC(F)C3)nc(Sc3ccc(NC(=O)c4ccccc4Cl)cc3)n2)[nH]n1` [Compound 60], the Ki is at most 100 nM.

`Cc1cc(Nc2cc(N3CC(C)C3)nc(Sc3ccc(NC(=O)c4ccccc4Cl)cc3)n2)n[nH]1` [Compound 39]: the Ki is at most 100 nM. As for `CCNC(=O)c1ccc(Sc2nc(Nc3cc(C)[nH]n3)cc(N3CCC3)n2)cc1` [Compound 20], the figure is 100 to 1000 nM; as for `Cc1cc(Nc2cc(N3CC(OC(C)(C)C)C3)nc(Sc3ccc(NC(=O)c4ccccc4Cl)cc3)n2)[nH]n1` [Compound 66], 100 to 1000 nM. For the compound `CCC(=O)Nc1ccc(Sc2nc(Nc3cc(C)n[nH]3)cc(N3CC(C)(NC(C)(C)C)C3)n2)cc1` [Compound 80], the Ki lay in the range of 100 to 1000 nM.

`CCC(=O)Nc1ccc(Sc2nc(Nc3cc(C)[nH]n3)cc(N3CC(O)C3)n2)cc1` [Compound 15]: the Ki was in the range of 100 to 1000 nM. On to `Cc1cc(Nc2cc(N3CCC3)nc(Sc3ccc(NC(=O)c4c(F)cccc4N4CCC4)cc3)n2)n[nH]1` [Compound 8], for which the Ki was 100 to 1000 nM. With `Cc1cc(Nc2cc(N3CCC3)nc(Sc3cccc(NC(=O)c4ccccc4Cl)c3)n2)[nH]n1` [Compound 49], the Ki was in the range of 1000 to 2000 nM. `CCC(=O)Nc1ccc(Sc2nc(Nc3cc(C)n[nH]3)cc(N3CC(C)(O)C3)n2)cc1` [Compound 71]: the Ki is 100 to 1000 nM. The result for `CC1=NN=C(Nc2cc(N3CCC3)nc(Sc3ccc(NC(=O)c4ccccc4)cc3)n2)C1` [Compound 52] reads 100 to 1000 nM. The result for `Cc1ccc(S(=O)(=O)Nc2ccc(Sc3nc(Nc4cc(C)[nH]n4)cc(N4CCC4)n3)cc2)cc1` [Compound 27] reads 1000 to 2000 nM.

Regarding `Cc1cc(Nc2cc(N3CCC3)nc(Sc3ccc(NC(=O)c4nccn4C)cc3)n2)n[nH]1` [Compound 166], the Ki is 1000 to 2000 nM. The result for `CCC(=O)Nc1ccc(Sc2nc(Nc3cc(C)n[nH]3)cc(N3CC(O)(C(C)(C)C)C3)n2)cc1` [Compound 81] reads at most 100 nM; that for `Cc1cnc(Nc2cc(N3CCC3)nc(Sc3ccc(NC(=O)C4CC4)cc3)n2)s1` [Compound 4], 100 to 1000 nM. The result for `Cc1ccc(C(=O)Nc2ccc(Sc3nc(Nc4cc(C)[nH]n4)cc(N4CCC4)n3)cc2)cc1` [Compound 28] reads 100 to 1000 nM; that for `Cc1cc(Nc2cc(N3CCC3)nc(Sc3ccc(NC(=O)c4ccc(F)cc4F)cc3)n2)n[nH]1` [Compound 44], 100 to 1000 nM; that for `Cc1cc(Nc2cc(N3CCC3)nc(Sc3ccc(NC(=O)OC(C)(C)C)cc3)n2)n[nH]1` [Compound 26], 1000 to 2000 nM. For the compound `Cc1cc(Nc2cc(N3CCC3)nc(Sc3ccc(NC(=O)CC(F)(F)F)cc3)n2)n[nH]1` [Compound 40], the Ki lay in the range of 100 to 1000 nM. As for `Cc1cnc(Nc2cc(N3CC(O)C3)nc(Sc3ccc(NC(=O)C4CC4)cc3)n2)s1` [Compound 3], the figure is 100 to 1000 nM; as for `CC1=NN=C(Nc2cc(N3CCC3)nc(Sc3ccc(NC(=O)C4CCCN4C)cc3)n2)C1` (stereo not shown) [Compound 6], 100 to 1000 nM. The result for `Cc1cc(Nc2cc(N3CCC3)nc(Sc3ccc4ccccc4c3)n2)n[nH]1` [Compound 25] reads 1000 to 2000 nM; that for `CCC(=O)Nc1ccc(Sc2nc(Nc3cc(C)[nH]n3)cc(N3CCC3)n2)cc1` [Compound 14], 100 to 1000 nM; that for `Cc1cc(Nc2cc(N3CCC3)nc(Sc3ccc(NC(=O)C4CCCCC4)cc3)n2)n[nH]1` [Compound 30], 100 to 1000 nM.

The record behind these values is patent US8637511B2, “Aminopyrimidines useful as kinase inhibitors” (Vertex Pharmaceuticals Incorporated, priority 2005, dated 2014).
